Assay results reported in the NIST ThermoML archive (doi:10.1021/acs.jced.8b00028).

Conditions: 101 kPa, Liquid

OCCO [1,2-ethanediol]
mass density [kg/m3]
Conditions	Buoyancy - hydrostatic balance	Pycnometric method
273.15 K	1127.2	1127.05
283.15 K	1120.58	1120.5
293.15 K	1113.84	1113.84
303.15 K	1106.98	1107.07
313.15 K	1099.99	1100.19
323.15 K	1092.88	1093.2
333.15 K	1085.65	1086.11
343.15 K	1078.29	1078.91
353.15 K	1070.8	1071.6
363.15 K	1063.2	1064.18
373.15 K	1055.47	–
383.15 K	1047.62	–
393.15 K	1039.64	–
403.15 K	1031.53	–
413.15 K	1023.31	–
423.15 K	1014.96	–
433.15 K	1006.48	–
443.15 K	997.88	–
453.15 K	989.16	–
463.15 K	980.31	–
473.15 K	971.34	–

CC(O)CO (configuration not stated) [1,2-propanediol]
mass density [kg/m3]
Conditions	Buoyancy - hydrostatic balance	Pycnometric method
273.15 K	1051.77	1052.17
283.15 K	1044.65	1044.74
293.15 K	1037.13	1037.22
303.15 K	1029.87	1029.64
313.15 K	1022.37	1021.98
323.15 K	1014.64	1014.25
333.15 K	1006.75	1006.45
343.15 K	998.71	998.57
353.15 K	990.77	990.62
363.15 K	982.38	982.6
373.15 K	973.81	–
383.15 K	965.04	–
393.15 K	956.09	–
403.15 K	946.95	–
413.15 K	937.62	–
423.15 K	928.1	–
433.15 K	918.39	–
443.15 K	908.5	–
453.15 K	898.41	–
463.15 K	888.14	–

CCCCCCC [heptane]
mass density [kg/m3]
Conditions	293.15 K	301.62 K	310.71 K	319.85 K	329.04 K	338.26 K	347.53 K	356.84 K
Buoyancy - hydrostatic balance	683.65	675.96	668.05	660.16	652.58	644.01	635.57	627.05
Pycnometric method	683.67	675.75	667.37	659.85	651.92	644.32	635.91	627.85
